From article PMC2361651 (British Journal of Cancer, 2005)
Like-named read-outs stand apart in the source and are kept apart here.

Experiment: Plasma pharmacokinetics of SU5416 and metabolites in Phase I patients (HPLC UV)
Type: in vivo, human
Settings: for Vd / AUC(0-t) / clearance / half-life / Cmax / AUC: human; for half-life: read-out: T1/2λz (converted); for Cmax: read-out: Cmax
Experimental: Samples were taken prior to treatment infusion, 15 min into the infusion, at completion of the infusion and then at 5, 10, 20, 30, 45, 60, 120 and 240 min following the infusion. […] At the designated times, 4.0 ml of blood were collected into a lithium heparin tube, gently inverted and placed on ice to maintain the sample at 2–8°C. All samples were immediately centrifuged at 6000 r.p.m. at 4°C for 10 min, the supernatant divided between two 1.5 ml Nalgene cryovials and snap frozen in liquid nitrogen. Separated plasma samples were subsequently stored at −70°C until analysis.
Pharmacokinetic analysis was performed using a fully validated HPLC UV method ([Stopeck et al, 2002]). Plasma samples, standards (25–2000 ng ml^−1) and quality controls spiked with internal standards were extracted with acetonitrile. Following centrifugation, drying and reconstitution in 200 μl mobile phase, 20 μl were analysed by HPLC UV. Chromatography was carried out using a C18 analytical column, with a gradient mobile phase containing acetonitrile and 10 mM ammonium formate at pH 2.6. The flow rate was 0.8 ml min^−1 and the run-time 21 min. Detection was via UV absorption at a wavelength of 440 nm. The accuracy of the assay, reflected in relative error of measured concentration to theoretical (prepared) concentrations, was between 0.9 and 5.6% for all quality control samples.
Pharmacokinetic parameters were evaluated using WinNonLin Software®.

[1] = in vivo, iv, 145 mg m^−2, individual patients, twice weekly i.v. infusion, dose 145 mg m^−2, cycle 1inj8
[2] = in vivo, iv, 145 mg m^−2, individual patients, twice weekly i.v. infusion, dose 145 mg m^−2, cycle 2inj8
[3] = in vivo, iv, individual patients, twice weekly i.v. infusion, dose 145 → 190 mg m^−2, cycle 2inj1
[4] = in vivo, iv, individual patients, twice weekly i.v. infusion, dose 145 → 190 mg m^−2, cycle 2inj8
[5] = in vivo, iv, individual patients, twice weekly i.v. infusion, dose 145 → 190 mg m^−2, cycle 3inj2
[6] = plasma, iv, 48 mg m^−2, individual patients, twice weekly i.v. infusion, dose 48 mg m^−2, cycle 1inj2
[7] = plasma, iv, 48 mg m^−2, individual patients, twice weekly i.v. infusion, dose 48 mg m^−2, cycle 1inj8
[8] = plasma, iv, 48 mg m^−2, individual patients, twice weekly i.v. infusion, dose 48 mg m^−2, cycle 2inj8
[9] = plasma, iv, 65 mg m^−2, individual patients, twice weekly i.v. infusion, dose 65 mg m^−2, cycle 1inj2
[10] = plasma, iv, 65 mg m^−2, individual patients, twice weekly i.v. infusion, dose 65 mg m^−2, cycle 1inj3
[11] = plasma, iv, 65 mg m^−2, individual patients, twice weekly i.v. infusion, dose 65 mg m^−2, cycle 1inj8
[12] = plasma, iv, 85 mg m^−2, individual patients, twice weekly i.v. infusion, dose 85 mg m^−2, cycle 1inj2

Q: What does the source list for `Cc1cc(C)c(/C=C2\C(=O)Nc3ccccc32)[nH]1` [SU5416, Z-3-[(2,4-dimethylpyrrol-5-yl)methylidenyl]-2-indolinone]?
A: average increase in drug clearance (day 4 vs day 25, five of the nine patients dosed at the same level on both days): 22%; dose linearity of kinetics (dose range 48–145 mg m^−2, initial assessment and day 25): linear kinetics; Vd (in vivo, iv, 48 mg m^−2, individual patients, twice weekly i.v. infusion, dose 48 mg m^−2, cycle 1inj2, read-out: Vz (observed)): 142 L; AUC(0-t) (in vivo, iv, 48 mg m^−2, individual patients, twice weekly i.v. infusion, dose 48 mg m^−2, cycle 1inj8): 816 ng·h/mL; clearance (in vivo, iv, 85 mg m^−2, individual patients, twice weekly i.v. infusion, dose 85 mg m^−2, cycle 1inj8, read-out: CL (observed) (converted)): 2520 mL/min; half-life (in vivo, iv, 145 mg m^−2, individual patients, twice weekly i.v. infusion, dose 145 mg m^−2, cycle 1inj2): 52.2 min; AUC(0-t) [1]: 4430 ng·h/mL; Cmax [1]: 3920 ng/mL; half-life [1]: 34.2 min; AUC(0-t) [2]: 1780 ng·h/mL; clearance (in vivo, iv, 145 mg m^−2, individual patients, twice weekly i.v. infusion, dose 145 mg m^−2, cycle 2inj8, read-out: CL (observed) (converted)): 3730 mL/min; Cmax [2]: 1340 ng/mL; half-life [2]: 43.2 min; Vd (in vivo, iv, 145 mg m^−2, individual patients, twice weekly i.v. infusion, dose 145 mg m^−2, cycle 2inj8, read-out: Vz (observed)): 233 L; AUC(0-t) [3]: 6450 ng·h/mL; clearance (in vivo, iv, individual patients, twice weekly i.v. infusion, dose 145 → 190 mg m^−2, cycle 2inj1, read-out: CL (observed) (converted)): 817 mL/min; Cmax [3]: 4000 ng/mL; half-life [3]: 46.2 min; Vd (in vivo, iv, individual patients, twice weekly i.v. infusion, dose 145 → 190 mg m^−2, cycle 2inj1, read-out: Vz (observed)): 54 L; AUC(0-t) [4]: 5040 ng·h/mL; clearance (in vivo, iv, individual patients, twice weekly i.v. infusion, dose 145 → 190 mg m^−2, cycle 2inj8, read-out: CL (observed) (converted)): 1320 mL/min; Cmax [4]: 3340 ng/mL; half-life [4]: 43.2 min; Vd (in vivo, iv, individual patients, twice weekly i.v. infusion, dose 145 → 190 mg m^−2, cycle 2inj8, read-out: Vz (observed)): 82 L; AUC(0-t) [5]: 7170 ng·h/mL; clearance (in vivo, iv, individual patients, twice weekly i.v. infusion, dose 145 → 190 mg m^−2, cycle 3inj2, read-out: CL (observed) (converted)): 733 mL/min; Cmax [5]: 6520 ng/mL; half-life [5]: 45 min; Vd (in vivo, iv, individual patients, twice weekly i.v. infusion, dose 145 → 190 mg m^−2, cycle 3inj2, read-out: Vz (observed)): 48 L; clearance (in vivo, range over the 25 evaluable patients, read-out: Plasma clearance (CL)): 767 to 3580 mL/min; Vd (in vivo, range over the 25 evaluable patients, read-out: volume of distribution (Vd)): 39 to 215 L; AUC (in vivo, at 145 mg m^−2): 3720 ± 930 ng·h/mL; AUC (in vivo, at 190 mg m^−2 in patients escalated from 145 mg m^−2 after 2 weeks): 3610 ± 183 ng·h/mL; Cmax [6]: 1740 ng/mL; half-life [6]: 32.4 min; Vd (plasma, iv, 48 mg m^−2, individual patients, twice weekly i.v. infusion, dose 48 mg m^−2, cycle 1inj2, read-out: Vz (observed)): 69 L; AUC(0-t) [7]: 630 ng·h/mL; clearance (plasma, iv, 48 mg m^−2, individual patients, twice weekly i.v. infusion, dose 48 mg m^−2, cycle 1inj8, read-out: CL (observed) (converted)): 2080 mL/min; Cmax [7]: 2060 ng/mL; half-life [7]: 36.6 min; Vd (plasma, iv, 48 mg m^−2, individual patients, twice weekly i.v. infusion, dose 48 mg m^−2, cycle 1inj8, read-out: Vz (observed)): 109 L; AUC(0-t) [8]: 498 ng·h/mL; clearance (plasma, iv, 48 mg m^−2, individual patients, twice weekly i.v. infusion, dose 48 mg m^−2, cycle 2inj8, read-out: CL (observed) (converted)): 2630 mL/min; Cmax [8]: 1630 ng/mL; half-life [8]: 34.2 min; Vd (plasma, iv, 48 mg m^−2, individual patients, twice weekly i.v. infusion, dose 48 mg m^−2, cycle 2inj8, read-out: Vz (observed)): 131 L; AUC(0-t) [9]: 1500 ng·h/mL; clearance (plasma, iv, 65 mg m^−2, individual patients, twice weekly i.v. infusion, dose 65 mg m^−2, cycle 1inj2, read-out: CL (observed) (converted)): 1070 mL/min; Cmax [9]: 4370 ng/mL; half-life [9]: 27 min; AUC(0-t) [10]: 566 ng·h/mL; clearance (plasma, iv, 65 mg m^−2, individual patients, twice weekly i.v. infusion, dose 65 mg m^−2, cycle 1inj3, read-out: CL (observed) (converted)): 3170 mL/min; Cmax [10]: 2070 ng/mL; half-life [10]: 12 min; Vd (plasma, iv, 65 mg m^−2, individual patients, twice weekly i.v. infusion, dose 65 mg m^−2, cycle 1inj3, read-out: Vz (observed)): 55 L; AUC(0-t) [11]: 1310 ng·h/mL; clearance (plasma, iv, 65 mg m^−2, individual patients, twice weekly i.v. infusion, dose 65 mg m^−2, cycle 1inj8, read-out: CL (observed) (converted)): 1230 mL/min; Cmax [11]: 4100 ng/mL; half-life [11]: 43.8 min; Vd (plasma, iv, 65 mg m^−2, individual patients, twice weekly i.v. infusion, dose 65 mg m^−2, cycle 1inj8, read-out: Vz (observed)): 78 L; AUC(0-t) [12]: 1810 ng·h/mL; clearance (plasma, iv, 85 mg m^−2, individual patients, twice weekly i.v. infusion, dose 85 mg m^−2, cycle 1inj2, read-out: CL (observed) (converted)): 1320 mL/min; Cmax [12]: 2340 ng/mL; half-life [12]: 23.4 min; AUC(0-t) (plasma, iv, 85 mg m^−2, individual patients, twice weekly i.v. infusion, dose 85 mg m^−2, cycle 1inj8): 2380 ng·h/mL
